Test results taken from patent US6525001B1, “Substituted pyrimidine and pyridine herbicides” (Mid-American Commercialization Corporation, priority 1997, dated 2003).

Experiments:
Assay type in all cases: in vivo
Set-up in all cases: key: 0 is no effect; 10 is complete control
[1] = tested on: giant foxtail (Setaria faberii); test: Test B pre-/postemergence
Summary of the method: (§1)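 Scored visually 0 (none) to 10 (complete control) against untreated plants after twelve to sixteen greenhouse days. Test chemicals, formulated in surfactant-containing non-phytotoxic solvent, applied to soil after planting and, separately, onto 1- to 4-leaf (2–18 cm) plants.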

[2] = tested on: velvetleaf (Abutilon theophrasti); test: Test B pre-/postemergence
Summary of the method: as §1

rape (Brassica napus) = test: Test B pre-/postemergence
Summary of the method: as §1

[3] = tested on: blackgrass (Alopecurus myosuroides); test: Test B pre-/postemergence; conditions: for Blackgrass plant response rating: Preemergence
Summary of the method: as §1

[4] = tested on: pigweed (Amaranthus retroflexus); test: Test B pre-/postemergence
Summary of the method: as §1

soybean (Glycine max) = test: Test B pre-/postemergence
Summary of the method: as §1

[5] = tested on: wheat (Triticum aestivum); test: Test B pre-/postemergence
Summary of the method: as §1

[6] = tested on: cocklebur (Xanthium strumarium); test: Test B pre-/postemergence; conditions: for Plant response rating, Cocklebur: Postemergence; for Cocklebur plant response rating: Preemergence
Summary of the method: as §1

[7] = tested on: sugar beet (Beta vulgaris); test: Test B pre-/postemergence
Summary of the method: as §1

wild oat (Avena fatua) = test: Test B pre-/postemergence
Summary of the method: as §1

[8] = tested on: crabgrass (Digitaria sanguinalis); test: Test B pre-/postemergence; conditions: for Crabgrass plant response rating: Preemergence
Summary of the method: as §1

[9] = tested on: purple nutsedge (Cyperus rotundus); test: Test B pre-/postemergence
Summary of the method: as §1

[10] = tested on: broadleaf signalgrass (Brachiaria decumbens); test: Test B pre-/postemergence; conditions: for B. signalgrass plant response rating: Preemergence
Summary of the method: as §1

corn (Zea mays) = test: Test B pre-/postemergence; conditions: for Corn plant response rating: Preemergence
Summary of the method: as §1

[11] = tested on: bedstraw (Galium aparine); test: Test B pre-/postemergence; conditions: for Bedstraw plant response rating: Preemergence
Summary of the method: as §1

[12] = tested on: momingglory (Ipomoea hederacea); test: Test B pre-/postemergence
Summary of the method: as §1

[13] = tested on: bamyardgrass (Echinochloa crus-galli); test: Test B flood test
Summary of the method: (§2)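 Flood test on plants grown to the 2-leaf stage; treated plants kept in greenhouse twelve to sixteen days, then visually rated against controls on a 0 (no effect) to 10 (complete control) scale.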

[14] = tested on: duck salad (Heteranthera limosa); test: Test B flood test
Summary of the method: as §2

rice (Oryza sativa) = test: Test B flood test
Summary of the method: as §2

[15] = tested on: smallflower flatsedge (Cyperus difformis); test: Test B flood test
Summary of the method: as §2

[16] = Rate 250 g/ha, Postemergence (so in the source)
[17] = Rate 62 g/ha, Postemergence (flood test)
[18] = Rate 125 g/ha, Postemergence, flood test
[19] = Rate 250 g/ha, Postemergence (flood test species)
[20] = Rate 125 g/ha, Postemergence section (flood test species)

Cc1cnc(-c2ccc(Cl)c(Cl)c2)nc1Cc1cccc(C#N)c1 [Compound 38]
Plant response rating, Giant foxtail ([1]; Rate 62 g/ha, Postemergence): 0 | Giant foxtail plant response rating ([1]; Rate 62 g/ha, Preemergence): 0 | Giant foxtail plant response rating ([1]; Rate 125 g/ha, Postemergence): 1 | Giant foxtail plant response rating ([1]; Rate 125 g/ha, Preemergence): 1 | Plant response rating, Giant foxtail ([1]; Rate 250 g/ha, Postemergence): 0 | Plant response rating, Giant foxtail [1, 16]: 1 | Plant response rating, Velvetleaf ([2]; Rate 62 g/ha, Postemergence): 1 | Velvetleaf plant response rating ([2]; Rate 62 g/ha, Preemergence): 0 | Velvetleaf plant response rating ([2]; Rate 125 g/ha, Postemergence): 1 | Plant response rating, Velvetleaf ([2]; Rate 125 g/ha, Preemergence): 0 | Plant response rating, Velvetleaf ([2]; Rate 250 g/ha, Postemergence): 2 | Plant response rating, Velvetleaf [2, 16]: 0 | Plant response rating, Rape (rape (Brassica napus); Rate 62 g/ha, Postemergence): 3 | Rape plant response rating (rape (Brassica napus); Rate 62 g/ha, Preemergence): 0 | Rape plant response rating (rape (Brassica napus); Rate 125 g/ha, Postemergence): 3 | Rape plant response rating (rape (Brassica napus); Rate 125 g/ha, Preemergence): 0 | Plant response rating, Rape (rape (Brassica napus); Rate 250 g/ha, Postemergence): 6 | Plant response rating, Rape (rape (Brassica napus); [16]): 0 | Plant response rating, Blackgrass ([3]; Rate 62 g/ha, Postemergence): 0 | Blackgrass plant response rating ([3]; Rate 62 g/ha): 0 | Plant response rating, Blackgrass ([3]; Rate 125 g/ha, Postemergence): 0 | Blackgrass plant response rating ([3]; Rate 125 g/ha): 0 | Plant response rating, Blackgrass ([3]; Rate 250 g/ha, Postemergence): 0 | Plant response rating, Blackgrass [3, 16]: 0 | Plant response rating, Redroot pigweed ([4]; Rate 62 g/ha, Postemergence): 2 | Redroot pigweed plant response rating ([4]; Rate 62 g/ha, Preemergence): 0 | Redroot pigweed plant response rating ([4]; Rate 125 g/ha, Postemergence): 4 | Redroot pigweed plant response rating ([4]; Rate 125 g/ha, Preemergence): 0 | Plant response rating, Redroot pigweed ([4]; Rate 250 g/ha, Postemergence): 5 | Plant response rating, Redroot pigweed [4, 16]: 0 | Plant response rating, Soybean (soybean (Glycine max); Rate 62 g/ha, Postemergence): 1 | Soybean plant response rating (soybean (Glycine max); Rate 62 g/ha, Preemergence): 0 | Soybean plant response rating (soybean (Glycine max); Rate 125 g/ha, Postemergence): 1 | Plant response rating, Soybean (soybean (Glycine max); Rate 125 g/ha, Preemergence): 0 | Plant response rating, Soybean (soybean (Glycine max); Rate 250 g/ha, Postemergence): 1 | Plant response rating, Soybean (soybean (Glycine max); [16]): 0 | Wheat plant response rating ([5]; Rate 62 g/ha, Postemergence): 1 | Wheat plant response rating ([5]; Rate 62 g/ha, Preemergence): 0 | Wheat plant response rating ([5]; Rate 125 g/ha, Postemergence): 1 | Plant response rating, Wheat ([5]; Rate 125 g/ha, Preemergence): 0 | Plant response rating, Wheat ([5]; Rate 250 g/ha, Postemergence): 1 | Plant response rating, Wheat [5, 16]: 0 | Plant response rating, Cocklebur ([6]; Rate 62 g/ha): 4 | Cocklebur plant response rating ([6]; Rate 62 g/ha): 0 | Plant response rating, Cocklebur ([6]; Rate 125 g/ha): 7 | Cocklebur plant response rating ([6]; Rate 125 g/ha): 0 | Plant response rating, Cocklebur ([6]; Rate 250 g/ha): 8 | Plant response rating, Sugarbeets ([7]; Rate 62 g/ha, Postemergence): 9 | Sugarbeets plant response rating ([7]; Rate 62 g/ha, Preemergence): 0 | Sugarbeets plant response rating ([7]; Rate 125 g/ha, Postemergence): 9 | Plant response rating, Sugarbeets ([7]; Rate 125 g/ha, Preemergence): 0 | Plant response rating, Sugarbeets ([7]; Rate 250 g/ha, Postemergence): 9 | Plant response rating, Sugarbeets [7, 16]: 0 | Wild oats plant response rating (wild oat (Avena fatua); Rate 62 g/ha, Postemergence): 1 | Wild oats plant response rating (wild oat (Avena fatua); Rate 62 g/ha, Preemergence): 0 | Wild oats plant response rating (wild oat (Avena fatua); Rate 125 g/ha, Postemergence): 1 | Plant response rating, Wild oats (wild oat (Avena fatua); Rate 125 g/ha, Preemergence): 0 | Plant response rating, Wild oats (wild oat (Avena fatua); Rate 250 g/ha, Postemergence): 1 | Plant response rating, Wild oats (wild oat (Avena fatua); [16]): 0 | Plant response rating, Crabgrass ([8]; Rate 62 g/ha, Postemergence): 0 | Crabgrass plant response rating ([8]; Rate 62 g/ha): 0 | Plant response rating, Crabgrass ([8]; Rate 125 g/ha, Postemergence): 0 | Crabgrass plant response rating ([8]; Rate 125 g/ha): 0 | Plant response rating, Crabgrass ([8]; Rate 250 g/ha, Postemergence): 1 | Plant response rating, Crabgrass [8, 16]: 0 | Plant response rating, Nutsedge ([9]; Rate 62 g/ha, Postemergence): 0 | Nutsedge plant response rating ([9]; Rate 62 g/ha, Preemergence): 0 | Nutsedge plant response rating ([9]; Rate 125 g/ha, Postemergence): 0 | Nutsedge plant response rating ([9]; Rate 125 g/ha, Preemergence): 0 | Plant response rating, Nutsedge ([9]; Rate 250 g/ha, Postemergence): 0 | Plant response rating, Nutsedge [9, 16]: 0 | Plant response rating, B. signalgrass ([10]; Rate 62 g/ha, Postemergence): 1 | B. signalgrass plant response rating ([10]; Rate 62 g/ha): 0 | Plant response rating, B. signalgrass ([10]; Rate 125 g/ha, Postemergence): 1 | B. signalgrass plant response rating ([10]; Rate 125 g/ha): 0 | Plant response rating, B. signalgrass ([10]; Rate 250 g/ha, Postemergence): 1 | Plant response rating, B. signalgrass ([10]; Rate 250 g/ha, Postemergence as printed in head r139 (second section for compounds 26-50)): 1 | Plant response rating, Corn (corn (Zea mays); Rate 62 g/ha, Postemergence): 1 | Corn plant response rating (corn (Zea mays); Rate 62 g/ha): 0 | Plant response rating, Corn (corn (Zea mays); Rate 125 g/ha, Postemergence): 1 | Corn plant response rating (corn (Zea mays); Rate 125 g/ha): 0 | Plant response rating, Corn (corn (Zea mays); Rate 250 g/ha, Postemergence): 1 | Plant response rating, Corn (corn (Zea mays); [16]): 0 | Plant response rating, Bedstraw ([11]; Rate 62 g/ha, Postemergence): 7 | Bedstraw plant response rating ([11]; Rate 62 g/ha): 0 | Plant response rating, Bedstraw ([11]; Rate 125 g/ha, Postemergence): 7 | Bedstraw plant response rating ([11]; Rate 125 g/ha): 1 | Plant response rating, Bedstraw [11, 16]: 2 | Plant response rating, Morningglory ([12]; Rate 62 g/ha, Postemergence): 1 | Morningglory plant response rating ([12]; Rate 62 g/ha, Preemergence): 0 | Morningglory plant response rating ([12]; Rate 125 g/ha, Postemergence): 1 | Morningglory plant response rating ([12]; Rate 125 g/ha, Preemergence): 0 | Plant response rating, Morningglory ([12]; Rate 250 g/ha, Postemergence): 1 | Plant response rating, Morningglory [12, 16]: 0 | Plant response rating, Barnyardgrass [13, 17]: 0 | Plant response rating, Barnyardgrass [13, 18]: 0 | Plant response rating, Barnyardgrass [13, 19]: 0 | Plant response rating, Ducksalad [14, 17]: 0 | Plant response rating, Ducksalad [14, 18]: 0 | Plant response rating, Ducksalad [14, 19]: 0 | Plant response rating, Rice (rice (Oryza sativa); [17]): 0 | Rice plant response rating (rice (Oryza sativa); [20]): 0 | Plant response rating, Rice (rice (Oryza sativa); [19]): 0 | Plant response rating, S. Flatsedge [15, 17]: 0 | S. Flatsedge plant response rating [15, 20]: 3 | Plant response rating, S. Flatsedge [15, 19]: 4
